In article PMC11305387, “AlphaFold accelerated discovery of psychotropic agonists targeting the trace amine–associated receptor 1” (Science Advances, 2024):

Columns and labels:
hTAAR1 = target: T1, hTAAR1 (Homo sapiens, UniProt Q96RJ0); assay: G protein (mini-Gs) recruitment luminescence complementation assay, agonist mode; assay type: cell-based
T1 construct: expressed in transfected cells; host or cells: Expi293F
T1 sequence (Q96RJ0 1-339): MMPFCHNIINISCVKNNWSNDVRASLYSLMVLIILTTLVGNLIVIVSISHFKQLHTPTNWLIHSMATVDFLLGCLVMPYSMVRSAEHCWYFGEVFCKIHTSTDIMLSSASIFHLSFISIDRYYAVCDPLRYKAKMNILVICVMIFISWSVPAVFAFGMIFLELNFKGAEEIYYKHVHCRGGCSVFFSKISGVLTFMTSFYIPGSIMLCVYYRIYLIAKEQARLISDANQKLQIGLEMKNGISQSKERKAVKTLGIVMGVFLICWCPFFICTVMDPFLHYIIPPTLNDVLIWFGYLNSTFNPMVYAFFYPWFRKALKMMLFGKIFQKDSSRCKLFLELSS
Method: The 62 predicted ligands were purchased from commercial vendors and tested for activity at a concentration of 20 μM in a luminescence complementation–based assay measuring recruitment of mini-Gs to the human TAAR1 ([38]).
To monitor TAAR1 activation by compounds, we used our previously described system. […] Cells were then reseeded in solid white, 96-well plates (Corning) with 90 μl of cell suspension per well. Luminescence was read using a plate reader for 5 min (SPARK 10 M, Tecan) before the addition of compounds to ensure signal stability. Ten microliters of each compound diluted in DPBS was added, and luminescence from each well was read for 10 min, with 100-ms read time per well. The A2AR counter-screen was performed using the same protocol. In these experiments, the hTAAR1 was replaced by a C-terminally SmBiT-tagged hA2AR construct.

5-HT1D receptor = target: T2, 5-HT1D receptor (Homo sapiens, UniProt P28221); assay: PRESTO-TANGO β-arrestin recruitment; assay type: cell-based
T2 construct: TANGO fusion module (own knowledge, Kroeze et al.: C-terminal V2 tail, TEV site and tTA); 1000000068; host or cells: HTLA (HEK293-derived)
Method: (§1) Assessment of receptor activation by compounds at all human aminergic receptors were carried out using a modified version of the PRESTO-TANGO method. […] The plate was spun down, and 5 μl of a 1:25 dilution (in DPBS) of polyethylenimine (PEI) derivative (Transporter 5, Polysciences) was added (1:4 cDNA to PEI ratio) and incubated for 20 min at room temperature (RT). […] Luminescence signal was detected using a plate-reader (SPARK, Tecan) with 100-ms integration time and a 100-ms delay between well reads.

α2A receptor = target: T3, α2A receptor (Homo sapiens, UniProt P08913); assay: PRESTO-TANGO β-arrestin recruitment; assay type: cell-based; conditions: panel screen
T3 construct: TANGO fusion module (own knowledge, Kroeze et al.: C-terminal V2 tail, TEV site and tTA); 1000000068; host or cells: HTLA (HEK293-derived)
T3 sequence (P08913 1-465): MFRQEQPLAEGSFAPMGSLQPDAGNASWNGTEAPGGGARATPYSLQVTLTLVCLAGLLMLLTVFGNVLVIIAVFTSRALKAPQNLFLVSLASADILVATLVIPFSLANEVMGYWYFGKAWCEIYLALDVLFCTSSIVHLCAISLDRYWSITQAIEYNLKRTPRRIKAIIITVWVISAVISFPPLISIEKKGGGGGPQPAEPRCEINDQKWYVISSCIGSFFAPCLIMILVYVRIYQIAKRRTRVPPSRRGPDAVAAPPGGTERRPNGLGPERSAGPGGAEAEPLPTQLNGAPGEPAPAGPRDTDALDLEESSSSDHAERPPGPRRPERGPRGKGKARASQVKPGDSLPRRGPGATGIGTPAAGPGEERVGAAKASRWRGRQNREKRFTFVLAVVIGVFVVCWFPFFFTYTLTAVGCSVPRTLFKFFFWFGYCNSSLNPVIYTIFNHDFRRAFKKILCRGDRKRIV

D2 receptor = target: T4, D2 receptor (Homo sapiens, UniProt P14416); assay: cell-based; assay type: cell-based
T4 construct: TANGO fusion module (own knowledge, Kroeze et al.: C-terminal V2 tail, TEV site and tTA); 1000000068; host or cells: HTLA (HEK293-derived)
Method: as §1

5-HT1A receptor = target: T5, 5-HT1A receptor (Homo sapiens, UniProt P08908); assay: PRESTO-TANGO β-arrestin recruitment; assay type: cell-based; conditions: panel screen
T5 construct: TANGO fusion module (own knowledge, Kroeze et al.: C-terminal V2 tail, TEV site and tTA); 1000000068; host or cells: HTLA (HEK293-derived)
T5 sequence (P08908 1-422): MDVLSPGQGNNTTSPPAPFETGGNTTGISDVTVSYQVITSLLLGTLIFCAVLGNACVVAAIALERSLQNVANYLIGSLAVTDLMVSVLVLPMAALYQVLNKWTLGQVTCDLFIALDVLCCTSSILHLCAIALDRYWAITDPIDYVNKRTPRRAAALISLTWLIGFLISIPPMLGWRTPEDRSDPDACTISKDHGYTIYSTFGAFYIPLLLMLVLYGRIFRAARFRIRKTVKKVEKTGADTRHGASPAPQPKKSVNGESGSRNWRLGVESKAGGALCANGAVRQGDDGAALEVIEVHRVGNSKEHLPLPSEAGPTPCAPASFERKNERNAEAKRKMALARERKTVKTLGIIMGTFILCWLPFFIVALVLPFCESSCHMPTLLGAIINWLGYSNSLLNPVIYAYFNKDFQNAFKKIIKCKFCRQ

H1 receptor = target: T6, H1 receptor (Homo sapiens, UniProt P35367); assay: PRESTO-TANGO β-arrestin recruitment; assay type: cell-based; conditions: panel screen, 10 μM; read-out: agonist activity, % of control
T6 construct: TANGO fusion module (own knowledge, Kroeze et al.: C-terminal V2 tail, TEV site and tTA); 1000000068; host or cells: HTLA (HEK293-derived)

M2 receptor = target: T7, M2 receptor (Homo sapiens, UniProt P08172); assay: PRESTO-TANGO β-arrestin recruitment; assay type: cell-based
T7 construct: TANGO fusion module (own knowledge, Kroeze et al.: C-terminal V2 tail, TEV site and tTA); 1000000068; host or cells: HTLA (HEK293-derived)
T7 sequence (P08172 1-466): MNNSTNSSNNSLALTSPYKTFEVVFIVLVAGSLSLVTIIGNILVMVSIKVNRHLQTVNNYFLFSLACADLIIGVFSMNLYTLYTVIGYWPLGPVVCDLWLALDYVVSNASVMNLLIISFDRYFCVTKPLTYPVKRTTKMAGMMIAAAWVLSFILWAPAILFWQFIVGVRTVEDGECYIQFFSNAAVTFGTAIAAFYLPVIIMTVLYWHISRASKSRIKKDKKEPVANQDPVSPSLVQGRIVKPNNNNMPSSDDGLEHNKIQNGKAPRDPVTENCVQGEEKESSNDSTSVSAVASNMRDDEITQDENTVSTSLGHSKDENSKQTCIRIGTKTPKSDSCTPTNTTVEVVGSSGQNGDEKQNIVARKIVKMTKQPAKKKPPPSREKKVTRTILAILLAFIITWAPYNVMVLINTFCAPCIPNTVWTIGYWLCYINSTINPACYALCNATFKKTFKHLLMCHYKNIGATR

TAAR1 = conditions: ref Zilberg et al. ([51]); cited from earlier work

T2 sequence (P28221 whole entry, the tested form may be a part): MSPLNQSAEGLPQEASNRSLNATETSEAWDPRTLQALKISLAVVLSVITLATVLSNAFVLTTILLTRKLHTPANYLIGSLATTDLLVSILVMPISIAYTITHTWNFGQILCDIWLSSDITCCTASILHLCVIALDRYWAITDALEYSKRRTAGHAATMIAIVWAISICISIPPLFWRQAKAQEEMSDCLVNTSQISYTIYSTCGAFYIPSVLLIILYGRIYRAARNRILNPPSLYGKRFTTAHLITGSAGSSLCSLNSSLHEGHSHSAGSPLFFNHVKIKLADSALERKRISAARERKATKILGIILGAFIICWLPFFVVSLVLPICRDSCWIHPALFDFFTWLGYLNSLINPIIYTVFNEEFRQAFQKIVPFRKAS
T4 sequence (P14416 whole entry, the tested form may be a part): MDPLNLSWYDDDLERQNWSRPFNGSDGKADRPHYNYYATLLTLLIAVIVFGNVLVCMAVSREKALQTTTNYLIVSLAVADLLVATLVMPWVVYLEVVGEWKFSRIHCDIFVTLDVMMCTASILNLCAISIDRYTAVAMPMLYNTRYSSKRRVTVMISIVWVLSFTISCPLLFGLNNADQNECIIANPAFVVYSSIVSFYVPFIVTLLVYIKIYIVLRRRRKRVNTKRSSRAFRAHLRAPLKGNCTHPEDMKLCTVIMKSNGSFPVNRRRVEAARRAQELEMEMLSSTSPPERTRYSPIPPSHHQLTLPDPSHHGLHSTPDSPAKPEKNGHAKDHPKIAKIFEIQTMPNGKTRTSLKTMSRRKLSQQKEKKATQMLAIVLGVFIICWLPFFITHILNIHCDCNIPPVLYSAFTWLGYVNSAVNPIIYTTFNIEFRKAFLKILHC
T6 sequence (P35367 whole entry, the tested form may be a part): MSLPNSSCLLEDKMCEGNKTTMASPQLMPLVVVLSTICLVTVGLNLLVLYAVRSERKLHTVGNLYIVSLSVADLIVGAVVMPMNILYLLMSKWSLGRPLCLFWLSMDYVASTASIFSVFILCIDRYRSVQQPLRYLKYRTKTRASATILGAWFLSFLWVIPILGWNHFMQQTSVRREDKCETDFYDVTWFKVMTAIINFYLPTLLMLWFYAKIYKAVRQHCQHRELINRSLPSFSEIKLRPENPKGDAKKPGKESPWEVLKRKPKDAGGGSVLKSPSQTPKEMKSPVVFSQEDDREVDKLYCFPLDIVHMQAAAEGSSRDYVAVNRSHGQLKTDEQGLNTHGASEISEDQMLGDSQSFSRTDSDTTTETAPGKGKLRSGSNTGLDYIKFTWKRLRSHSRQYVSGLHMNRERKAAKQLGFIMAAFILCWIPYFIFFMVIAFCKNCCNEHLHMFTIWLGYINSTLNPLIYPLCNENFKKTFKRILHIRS

## C1=C(c2ccco2)CNCC1 [Compound 30]
hTAAR1; TAAR1
  agonist type: full agonist
hTAAR1; TAAR1, G protein recruitment assay, read-out: pEC50 (converted)
  EC50: 31.6 nM
hTAAR1; TAAR1 G protein recruitment
  fold more potent than Ulotaront: > 25 fold
  fold more potent than the reference agonist β-PEA: ~ 10 fold
hTAAR1; relative to the effect of the reference agonist β-PEA, read-out: Emax
  Emax: 112%
5-HT1D receptor
  EC50: > 1000 nM
  Emax: 52%
5-HT1D receptor; panel screen
  agonism at the 5-HT1D receptor: agonism
α2A receptor
  agonism at the α2A receptor: agonism
D2 receptor; concentration-response curves
  EC50: > 1000 nM
  Emax: 54%
D2 receptor; panel screen
  agonism at the D2 receptor: agonism
5-HT1A receptor
  activation of 5-HT1A receptor: did not observe a considerable activation
H1 receptor
  activity at 10 µM: 70%
M2 receptor; concentration-response curves
  EC50: 10000 nM
  Emax: 125%
M2 receptor; panel screen, 10 μM, read-out: agonist activity, % of control
  activity at 10 µM: 55%

## CN1CC2c3ccccc3Oc3ccc(Cl)cc3C2C1 (stereo not drawn) [asenapine]
TAAR1
  TAAR1 agonism: potent TAAR1 agonist
